# What was measured:
# Type in all cases: cell-based, human
# P301S v1 biosensor cells = test: Seeding assay, percent FRET positivity by flow cytometry, v1 (original) biosensor cells; details: T-test p<0.05
# Procedure: Wild-type full-length (2N4R) tau was synthesized and purified. 8 μM purified recombinant tau was incubated with 8 uM heparin and 10 mM DTT at 37 C for 48 h in 10 mM HEPES, 100 mM NaCL, PH 7.4. The quality of fibrils was verified by transmission electron microscopy.
# (§1) P301S4 or P301S v2L or v2H HEK biosensor cells were plated in 96-well plates at 20,000 cells per well 24 hours before treatment. dilutions of recombinant tau fibrils or brain homogenates in Opti-MEM (Thermo Fisher), 30 μl total volume, or immunoprecipitation eluents 120 μl total volume, were allowed to come to room temperature. […] After 48 hours, cells were trypsinized and fixed in 2% PFA and suspended in flow cytometry buffer (1×HBSS, 1% FBS, 1 mM EDTA). percent FRET positivity was determined of each well by flow cytometry.
# (§2) The sensitivity of v2L and v2H cells was first compared to the original line. synthetic fibrils based on exposure of recombinant tau protein to heparin were created. The fibrils were incubated with cells in the absence or presence of Lipofectamine 2000 for 48 h and quantified the percentage of FRET-positive cells using flow cytometry to determine the lower limit of detection. […] In the absence of cationic lipid reagent, 1.6 pM tau were detected in v2L cells and 0.78 pM tau in v2H cells (FIGS. 5A and 5B). […]
# [1] = system: P301S v2L HEK biosensor cells; test: Seeding assay, percent FRET positivity by flow cytometry, v2L biosensor cells
# From the text: A lentiviral FM5-YFP plasmid containing the tau segment 246 to 378 with the P301S mutation, was used as a template, where the human ubiquitin C (Ubc) promoter was replaced with a human cytomegalovirus (CMV) promoter, and the YFP sequence was replaced with a mCerulean 3 or mClover3 coding sequences (see FIGS. 1 and 2). The sequence linking the tau segment and the coding sequence of the fluorophore (Cer or Co) was optimized to the following sequence: GSAGSAAGSGEF (SEQ ID NO:41). Low passage HEK293T cells (P5) were thawed and passaged with antibiotic free media twice before being co-administration of lentivirus encoding tau RD(P301S)-Clo/Cer tau lentivirus. After four passages, single cells were cell sorted by FACS based on low or high signal for both mCerulean3 and mClover3, termed version 2 low (v2L) or version 2 high (v2H). Monoclonal colonies were expanded and characterized as described.
# Wild-type full-length (2N4R) tau was synthesized and purified. […]
# as §1, §2
# HEK biosensor cells = test: Immunoprecipitation from spiked control CSF followed by seeding assay; details: 1 ml control CSF spiked
# Procedure: 50 μl of Dynabeads Protein A (Thermo Fisher) were washed per the manufacturer protocol and incubated with 10 μg of polyclonal antibody (TauA, Diamond Lab) against the first microtubule-binding repeat of tau for 1 hour at room temperature. washed beads were then added to 1 or 5 ml of human CSF and incubated with rotation overnight at 4° C. Captured proteins were eluted in low pH elution buffer (Pierce) and neutralized the buffer with 1:10 1M Tris pH 8.5 with a final volume of 120 μl.
# as §1
# To determine the lower limit of detection of tau seeds in CSF, control CSF were spiked with small quantities of AD frontal cortex protein (brain AD1) or recombinant tau fibrils. the AD seeds were concentrated and purified using a rabbit polyclonal antibody directed against tau RD (TauA).
# [2] = system: P301S v2H HEK biosensor cells; test: Seeding assay, percent FRET positivity by flow cytometry, v2H biosensor cells; details: for lower limit of detection (LLD), lowest quantity producing FRET positivity statistically distinguishable from background: v2H, T-test p<0.05
substance,measurement,setting,value
recombinant tau fibrils: Wild-type full-length (2N4R) recombinant tau incubated with heparin and DTT at 37 C for 48 h to form fibrils,"lower limit of detection (LLD), lowest quantity producing FRET positivity statistically distinguishable from background","P301S v1 biosensor cells; v1, Lipofectamine seeding",10 fmol per sample
same,"lower limit of detection (LLD), lowest quantity producing FRET positivity statistically distinguishable from background","P301S v1 biosensor cells; v1, naked seeding",1.6 pmol
same,tau detected (lower limit of detection),"[1]; v2L cells, absence of cationic lipid reagent, FIGS. 5A and 5B",1.6 pM
same,"lower limit of detection (detected, monomer equivalent)","[1]; v2L cells, presence of Lipofectamine 2000, 48 h, FIGS. 4A and 4B",10 fM
same,sensitivity versus the original line,[1]; v2L lines versus original biosensor line,approximately 10 fold
same,"seeding activity detected in spiked CSF after IP, lowest level (monomer equivalent)","HEK biosensor cells; IP with TauA antibody, FIG. 7C",100 attomolar
same,seeding detected from spiked samples down to (tau monomer equivalent),"HEK biosensor cells; IP, FIG. 7",100 attomoles
same,tau detected (lower limit of detection),"[2]; v2H cells, absence of cationic lipid reagent, FIGS. 5A and 5B",0.78 pM
same,"lower limit of detection (detected, monomer equivalent)","[2]; v2H cells, presence of Lipofectamine 2000, 48 h, FIGS. 4A and 4B",32 aM
same,sensitivity versus the original biosensor cell line,[2]; v2H line versus original biosensor line,more than 300 fold
same,"lower limit of detection (LLD), lowest quantity producing FRET positivity statistically distinguishable from background",[2]; Lipofectamine seeding,32 amol per sample
same,"lower limit of detection (LLD), lowest quantity producing FRET positivity statistically distinguishable from background",[2]; naked seeding,0.78 pmol

# — patent US20240043483A1, “TAU BIOSENSOR CELL LINES” (THE BOARD OF REGENTS OF THE UNIVERSITY OF TEXAS SYSTEM, priority 2020, published 2024)
